# Experimental data: patent US20090227521A1, “USE OF COMPOUNDS IN THE TREATMENT OF ISCHEMIA AND NEURODEGENERATION” (priority 2006, published 2009)
# Where “and” joins values, the source holds several entries; their conditions need not be identical. Equal values may be shown once. *: point of attachment. Cbz = O=C(OCc1ccccc1)*
# Experiments:
# TPP II = target: T1, TPP II (Mus musculus, UniProt Q64514); assay: Inhibition of cleavage of AAF-AMC by enriched TPP II (peptidase assay); type: biochemical; settings: for cleavage of AAF-AMC, mean: mean of three
# T1 construct: 1 ug of high molecular weight protein was used as enzyme in peptidase assays; endogenous in cells
# T1 sequence (Q64514 2-1262 limits assumed): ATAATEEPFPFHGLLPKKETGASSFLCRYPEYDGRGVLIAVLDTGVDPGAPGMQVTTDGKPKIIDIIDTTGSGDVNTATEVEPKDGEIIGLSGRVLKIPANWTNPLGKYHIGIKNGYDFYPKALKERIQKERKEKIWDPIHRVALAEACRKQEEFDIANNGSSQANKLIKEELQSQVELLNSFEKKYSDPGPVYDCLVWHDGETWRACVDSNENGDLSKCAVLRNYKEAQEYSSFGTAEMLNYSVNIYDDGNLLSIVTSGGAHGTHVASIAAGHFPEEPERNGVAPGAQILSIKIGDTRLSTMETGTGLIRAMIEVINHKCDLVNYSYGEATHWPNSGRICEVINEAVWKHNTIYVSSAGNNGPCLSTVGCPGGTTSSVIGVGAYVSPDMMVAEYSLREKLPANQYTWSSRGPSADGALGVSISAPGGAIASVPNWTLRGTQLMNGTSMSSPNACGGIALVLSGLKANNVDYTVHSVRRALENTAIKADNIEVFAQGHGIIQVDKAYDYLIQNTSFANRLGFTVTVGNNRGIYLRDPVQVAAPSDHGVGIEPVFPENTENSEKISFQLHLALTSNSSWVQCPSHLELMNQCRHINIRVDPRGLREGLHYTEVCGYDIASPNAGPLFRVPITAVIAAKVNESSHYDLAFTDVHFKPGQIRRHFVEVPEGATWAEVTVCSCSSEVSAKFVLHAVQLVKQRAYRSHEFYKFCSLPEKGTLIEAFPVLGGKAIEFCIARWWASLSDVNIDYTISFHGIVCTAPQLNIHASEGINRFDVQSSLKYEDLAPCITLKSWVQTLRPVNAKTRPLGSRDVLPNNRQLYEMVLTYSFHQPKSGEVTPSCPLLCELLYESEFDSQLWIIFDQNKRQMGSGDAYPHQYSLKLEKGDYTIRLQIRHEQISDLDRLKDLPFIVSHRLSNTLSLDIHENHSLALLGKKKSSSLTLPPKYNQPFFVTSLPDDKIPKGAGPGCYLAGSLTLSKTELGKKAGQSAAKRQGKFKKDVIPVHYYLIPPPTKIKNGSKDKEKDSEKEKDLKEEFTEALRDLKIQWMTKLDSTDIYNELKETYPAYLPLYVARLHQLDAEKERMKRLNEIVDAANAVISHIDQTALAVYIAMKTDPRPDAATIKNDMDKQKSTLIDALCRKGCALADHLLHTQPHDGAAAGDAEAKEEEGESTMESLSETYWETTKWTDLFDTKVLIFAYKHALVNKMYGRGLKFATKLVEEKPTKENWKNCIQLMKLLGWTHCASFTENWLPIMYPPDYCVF
# Protocol: It is not necessary to achieve a particularly high level of purification, and conventional simple techniques can be used to obtain TPP II of sufficient quality to use in a screening method. In one non-limiting example of purification of TPP II, 100×10^6 cells (such as EL-4 cells) were sedimented and lysed by vortexing in glass beads and homogenisation buffer (50 mM Tris Base pH 7.5, 250 mM Sucrose, 5 mM MgCl2, 1 mM DTT). Cellular lysates were subjected to differential centrifugation; first the cellular homogenate was centrifuged at 14,000 rpm for 15 min, and then the supernatant was transferred to ultra-centrifugation tubes. Next the sample was ultra-centrifugated at 100,000×g for 1 hour, and the supernatant (denoted as cytosol in most biochemical literature) was subjected to 100,000×g centrifugation for 5 hours, which sedimented high molecular weight cytosolic proteins/protein complexes. The resulting pellet dissolved in 50 mM Tris Base pH 7.5, 30% Glycerol, 5 mM MgCl2, and 1 mM DTT, and 1 ug of high molecular weight protein was used as enzyme in peptidase assays.
# It is possible to test the activity of TPP II using for example the substrate AAF-AMC (Sigma, St. Louis, Mo.). This may for example be used at 100 uM concentration in 100 ul of test buffer composed of 50 mM Tri Base pH 7.5, 5 mM MgCl2 and 1 mM DTT. It is possible to stop reactions using dilution with 900 ul 1% SDS solution. Cleavage activity may be measured for example by emission at 460 nm in a LS50B Luminescence Spectrometer (Perkin Elmer, Boston, Mass.).
# Protein Purification, Peptidase Assays and Analysis of DNA Fragmentation. 100×10^6 cells were sedimented and lysed by vortexing in glass beads and homogenisation buffer (50 mM Tris Base pH 7.5, 250 mM Sucrose, 5 mM MgCl2, 1 mM DTT). Cellular lysates were submitted to differential centrifugation where a supernatant from a 1 hour centrifugation at 100,000×g (cytosol) was submitted to 100,000×g centrifugation for 3-5 hours, which sedimented high molecular weight cytosolic proteins/protein complexes. The resulting pellet dissolved in 50 mM Tris Base pH 7.5, 30% Glycerol, 5 mM MgCl2, and 1 mM DTT, and 1 micro-g of high molecular weight protein was used as enzyme in peptidase assays or in Western blotting for TPP II expression. To test the activity of TPP II we used the substrate AAF-AMC (Sigma, St. Louis, Mo.), at 100 micro-M concentration in 100 micro-I of test buffer composed of 50 mM Tri Base pH 7.5, 5 mM MgCl2 and 1 mM DTT. Cleavage activity was measured by emission at 460 nm in a LS50B Luminescence Spectrometer (Perkin Elmer, Boston, Mass.). For analysis of DNA fragmentation cells were seeded in 12-well plates at 10^6 cells/ml and exposed to 25 micro-M etoposide, a DNA topoisomerase II inhibitor commonly used as an apoptosis-inducing agent, to starvation (50% PBS). Cells were seeded at 10^6 cells/ml in 12-well plates and incubated for the indicated times, usually 18-24 hours. DNA from EL-4 control and adapted cells was purified by standard chloroform extraction, and 2.5 micro-g of DNA was loaded on 1.8% agarose gel for detection of DNA from apoptotic cells.
# TPP II protein was enriched, and then a TPP II-preferred fluorogenic substrate AAF-AMC was used. 100×10^6 cells were sedimented and lysed by vortexing in glass beads and homogenisation buffer (50 mM Tris Base pH 7.5, 250 mM Sucrose, 5 mM MgCl2, 1 mM DTT). Cellular lysates were subjected to differential centrifugation; first the cellular homogenate was centrifuged at 14,000 rpm for 15 min, and then the supernatant was transferred to ultra-centrifugation tubes. Next the sample was ultra-centrifugated at 100,000×g for 1 hour, and the supernatant (denoted as cytosol in most biochemical literature) was subjected to 100,000×g centrifugation for 5 hours, which sedimented high molecular weight cytosolic proteins/protein complexes. […]
# EL-4.Ub-R-GFP-Q112 cells = assay: Ub-R-GFP-Q112 poly-Glutamine reporter substrate degradation in stably transfected EL-4 cells (flow cytometry); type: cell-based, mouse; settings: for Ub-R-GFP-Q112 substrate level: up to 72 hours, serum-free AIM-V medium
# Excerpt: (§1) Cells and Culture Conditions. EL-4 is a Benzpyrene-induced lymphoma cell line derived from the C57BI/6 mouse strain. EL-4.wt and EL-4.TPPII^i are EL-4 cells transfected with the pSUPER vector (Brummelkamp, T R, Bernards, R, Agami, R. A system for stable expression of short interfering RNAs in mammalian cells. Science 2002; 296:550-3), empty versus containing the siRNA directed against TPPII. HeLa cells are human cervical carcinoma cells. For induction of stress, cells were starved by growth in 50%-75% Phosphate Buffered Saline (PBS) or gamma-irradiated 250-2000 Rad's; and incubated at 37° C. and 5.3% CO2. Our flow cytometric data represent live cells as determined by flow cytometric gating with Propidium Iodide (PI). For generation of stable transfectants, 5×10^6 cells were washed in PBS, then resuspended into 500 micro-I of PBS in a Bio-Rad gene-pulser and pulsed with 10 micro-g DNA and 250 V at 960 micro-F; and selected by resistance to G418. UbGV76-GFP is a ubiquitin-fusion construct that creates a rapidly degraded GFP molecule for monitoring 26S proteasome activity in live cells through flow cytometry (Dantuma, N. P, Lindsten, K., Glas, R., Jellne, M., and Masucci, M. G. 2000. Short-lived green fluorescent proteins for quantifying ubiquitin/proteasome-dependent proteolysis in living cells. Nat. Biotechnol. 18:538-43). Ub-R-GFP is a similar vector that also encodes a highly unstable GFP molecule degraded through the ubiquitin-proteasome pathway. Ub-R-GFP-Q112 is the same substrate but contains an extended C-terminal with 112 glutamines (Verhoef, L. G., Lindsten, K., Masucci, M. G. and Dantuma, N. P. 2002. Aggregate formation inhibits proteasomal degradation of polyglutamine proteins. Hum Mol. Genet. 11:2689-700).
# Flow Cytometry. Fluorescence was quantified by a FACScalibur. Flow cytometric cell sorting of live cells was performed by incubation of cells for 5 minutes with 2 micro-g/ml of Propidium Iodide (PI) and subsequent sorting into PI^+ and PI^− populations with a FACSvantage. […]
# EL-4 cells [1] = assay: Western blotting of TPPII, proteasome alpha-3 and p53 in stressed EL-4 cells; type: cell-based, mouse
# Excerpt: as §1, with “Ub-R-GFP-Q112 is the same substrate but contains an extended C-terminal with 112 glutamines (Verhoef, L. G., Lindsten, K., Masucci, M. G. and Dantuma, N. P. 2002. Aggregate formation inhibits proteasomal degradation of polyglutamine proteins. Hum Mol. Genet. 11:2689-700).” left out
# Protein Purification, Peptidase Assays and Analysis of DNA Fragmentation. […] Cleavage activity was measured by emission at 460 nm in a LS50B Luminescence Spectrometer (Perkin Elmer, Boston, Mass.). […]
# Antibodies and Antisera. The following molecules were detected by the antibodies specified: GFP by rabbit anti-GFP serum (Molecular Probes Europe, Breda, The Netherlands); 19S proteasomal complexes by anti-Rpt6 (19S base ATPase subunit), 20S proteasomal complexes by (Affinity, Exeter, UK); For detection of TPPII we used chicken anti-TPPII serum (Immunsystem, Uppsala, Sweden). […]
# Subtilisin = settings: bacterial homologue of eukaryotic TPP II; cited from earlier work
# EL-4.Ub-R-GFP cells = assay: GFP reporter substrate fluorescence in EL-4.Ub-R-GFP cells (flow cytometry); type: cell-based, mouse; settings: live cells, proteasomal inhibitor treatment
# Excerpt: as §1, with “Ub-R-GFP is a similar vector that also encodes a highly unstable GFP molecule degraded through the ubiquitin-proteasome pathway. Ub-R-GFP-Q112 is the same substrate but contains an extended C-terminal with 112 glutamines (Verhoef, L. G., Lindsten, K., Masucci, M. G. and Dantuma, N. P. 2002. Aggregate formation inhibits proteasomal degradation of polyglutamine proteins. Hum Mol. Genet. 11:2689-700).” left out
# (§2) Flow Cytometry. Fluorescence was quantified by a FACScalibur. […]
# HeLa.UbGV76-GFP cells = assay: GFP reporter substrate fluorescence in HeLa.UbGV76-GFP cells (flow cytometry); type: cell-based, human; settings: live cells, proteasomal inhibitor treatment
# Excerpt: as §1, with “Ub-R-GFP is a similar vector that also encodes a highly unstable GFP molecule degraded through the ubiquitin-proteasome pathway. Ub-R-GFP-Q112 is the same substrate but contains an extended C-terminal with 112 glutamines (Verhoef, L. G., Lindsten, K., Masucci, M. G. and Dantuma, N. P. 2002. Aggregate formation inhibits proteasomal degradation of polyglutamine proteins. Hum Mol. Genet. 11:2689-700).” left out
# as §2
# EL-4 cells [2] = assay: Nuclear localization of proteasomes in starved EL-4 cells (immunohistochemistry); type: cell-based, mouse; settings: starvation, 100 micro-M
# Excerpt: as §1, with “Ub-R-GFP is a similar vector that also encodes a highly unstable GFP molecule degraded through the ubiquitin-proteasome pathway. Ub-R-GFP-Q112 is the same substrate but contains an extended C-terminal with 112 glutamines (Verhoef, L. G., Lindsten, K., Masucci, M. G. and Dantuma, N. P. 2002. Aggregate formation inhibits proteasomal degradation of polyglutamine proteins. Hum Mol. Genet. 11:2689-700).” left out
# HeLa cells = assay: Nuclear localization of proteasomes in starved HeLa cells (immunohistochemistry); type: cell-based, human; settings: starvation, 100 micro-M
# Excerpt: as §1, with “Ub-R-GFP is a similar vector that also encodes a highly unstable GFP molecule degraded through the ubiquitin-proteasome pathway. Ub-R-GFP-Q112 is the same substrate but contains an extended C-terminal with 112 glutamines (Verhoef, L. G., Lindsten, K., Masucci, M. G. and Dantuma, N. P. 2002. Aggregate formation inhibits proteasomal degradation of polyglutamine proteins. Hum Mol. Genet. 11:2689-700).” left out
compound,measurement,setting,value
Cbz-Gly-Leu-Ala-OH [Z-GLA-OH],"cleavage of AAF-AMC, single determination",TPP II; compound at 1 nM,32.54 fluorometric units and 32.61 fluorometric units and 33.41 fluorometric units
same,"cleavage of AAF-AMC, mean",TPP II; compound at 1 nM,32.85 fluorometric units
same,"cleavage of AAF-AMC, single determination",TPP II; compound at 10 nM,21.74 fluorometric units and 21.93 fluorometric units and 24.44 fluorometric units
same,"cleavage of AAF-AMC, mean",TPP II; compound at 10 nM,22.70 fluorometric units
same,"cleavage of AAF-AMC, single determination",TPP II; compound at 100 nM,14.43 fluorometric units and 14.26 fluorometric units and 14.37 fluorometric units
same,"cleavage of AAF-AMC, mean",TPP II; compound at 100 nM,14.35 fluorometric units
same,"cleavage of AAF-AMC, single determination",TPP II; compound at 1 uM,11.43 fluorometric units and 11.9 fluorometric units and 11.46 fluorometric units
same,"cleavage of AAF-AMC, mean",TPP II; compound at 1 uM,11.60 fluorometric units
same,"cleavage of AAF-AMC, single determination",TPP II; compound at 10 uM,6.47 fluorometric units and 7.66 fluorometric units and 7.49 fluorometric units
same,"cleavage of AAF-AMC, mean",TPP II; compound at 10 uM,7.21 fluorometric units
same,"cleavage of AAF-AMC, single determination","TPP II; compound at 100 uM, arbitrary but relative units, lower = more inhibition",1.14 fluorometric units and 1.44 fluorometric units and 1.55 fluorometric units
same,"cleavage of AAF-AMC, mean",TPP II; compound at 100 uM,1.38 fluorometric units
same,Ub-R-GFP-Q112 substrate level,EL-4.Ub-R-GFP-Q112 cells; 25-microM,gradual decline
same,TPPII expression,"EL-4 cells [1]; gamma-irradiated (500 Rad) EL-4.wt cells, 25 micro-M",strong reduction
same,inhibition of Subtilisin,Subtilisin,inhibit
"CC(C)C[C@@H](/C=C/S(C)(=O)=O)NC(=O)[C@H](CC(C)C)NC(=O)[C@H](CC(C)C)NC(=O)Cc1cc(I)c(O)c([N+](=O)[O-])c1 [NLVS, 4-hydroxy-5-iodo-3-nitrophenylacetyl-Leu-Leu-Leu-vinyl sulphone]",accumulation of Ub-R-GFP-Q112 substrate not degraded,EL-4.Ub-R-GFP-Q112 cells; treatment with NLVS,further increased accumulation
same,steady state levels of GFP-fluorescence,EL-4.Ub-R-GFP cells,strong increase
same,steady state levels of GFP-fluorescence,HeLa.UbGV76-GFP cells,strong increase
same,rapid TPPII down regulation during wortmannin treatment,"EL-4 cells [1]; starved EL-4 cells, with 1 micro-M wortmannin",prevented
CCCCNC(=O)[C@@H]1Cc2ccccc2N1C(=O)[C@@H](N)CC [Butabindide],Ub-R-GFP-Q112 substrate level,EL-4.Ub-R-GFP-Q112 cells; 100 micro-M,gradual decline
same,nuclear localization of proteasomes,EL-4 cells [2],inhibited nuclear localization of proteasomes
same,nuclear localization of proteasomes,HeLa cells,inhibited nuclear localization of proteasomes
same,stabilization of p53,"EL-4 cells [1]; gamma-irradiated (500 Rad) EL-4.wt cells, 100 micro-M from 2 hours before onset",prevent
